Measured values: BindingDB's records for patent US20240254093 (Heptares Therapeutics Limited, 2024)

Target: G-protein coupled receptor 35 (Homo sapiens, UniProt Q9HC97)
Experiment: Human GPR35a Isoform Binding Assay
Protocol: Overexpression of Human GPR35a Baculovirus in HEK293f cells at a cell density of 2.5 106 cells/mL and a multiplicity of infection of 2.5 over 24 h in Pro293 (Lonza)+5% FBS, 1% Glutamax and 0.4% Pen/Strep. Cells harvested and centrifuged at 2500 RPM for 10 mins at 4 C. The supernatant was then poured off and the pellet stored at +-80 C. The pellet was defrosted and re-suspended in 15 mL of homogenising buffer (20 mM HEPES, 10 mM EDTA, pH 7.4). Then homogenised in mechanical homogeniser (VMR) for 10 seconds. The membrane was centrifuged in centrifuge tubes at 40,000 g for 15 mins at 4 C. The supernatant was poured away and re-suspended in 15 mL of homogenising buffer. Homogenised for 20 seconds. The membrane was centrifuged at 40,000 g for 45 mins at 4 C. The membrane was re-suspended in 3 mL of storage buffer (20 mM HEPES, 0.1 mM EDTA, pH 7.4) mixing well. The resulting membranes were then stored at +-80 . […] 0.1 uM FAC Lodoxamide was added in order to allow non-specific binding to be calculated. […] Plates were dried prior to 50 ul/well scintillant added, sealed and radioactivity measured using a MicroBeta analyser. IC50 values were derived from the inhibition curve and affinity constant (Ki) values were calculated using the Cheng-Prussoff equation, where; pKi=+-log 10 Ki.

Sequence of G-protein coupled receptor 35 (Q9HC97 whole entry, canonical isoform): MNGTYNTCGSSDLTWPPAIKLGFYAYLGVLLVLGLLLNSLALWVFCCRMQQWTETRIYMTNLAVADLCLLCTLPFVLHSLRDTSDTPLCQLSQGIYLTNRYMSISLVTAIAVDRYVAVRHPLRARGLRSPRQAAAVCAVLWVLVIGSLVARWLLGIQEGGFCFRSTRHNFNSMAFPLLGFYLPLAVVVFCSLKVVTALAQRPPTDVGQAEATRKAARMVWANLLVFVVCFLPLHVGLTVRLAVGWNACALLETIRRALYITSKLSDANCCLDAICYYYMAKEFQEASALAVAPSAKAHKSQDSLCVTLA

Row | SMILES | Ki
1 | O=c1c(O)c(Nc2cc(-c3ccccc3)cc(-c3nn[nH]n3)c2)c1=O [US20240254093, Example 3] | 0.35 nM
2 | O=c1c(O)c(Nc2cccc(-c3nn[nH]n3)c2)c1=O [US20240254093, Example 1] | 9.81 nM
